How the values were obtained:
Assay in all cases: relative viability (nuclei count vs DMSO), 5 days (fraction); higher = more cells survive
IPA-3 = compound: C1=CC=C2C(=C1)C=CC(=C2SSC3=C(C=CC4=CC=CC=C43)O)O [IPA-3]
Summary of the method: (§1)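 Lung cancer cell lines in 1536-well plates were kept overnight at 37 °C, then pinned with five library-drug doses (not always all listed) spaced by √10 on vehicle-anchored plates. After 5 days without medium change, cells were fixed, permeabilised and Hoechst-stained in one step, imaged at 4×, and nuclei were counted with MetaXpress. Viability is treated-well nuclei divided by vehicle-well nuclei, taken as the median over plates. Plates passed only with control CV below 25% and at least one doubling.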

RAF265 = compound: Cn1c(Nc2ccc(C(F)(F)F)cc2)nc2cc(Oc3ccnc(-c4ncc(C(F)(F)F)[nH]4)c3)ccc21 [RAF265]
Summary of the method: as §1

Doramapimod = compound: Cc1ccc(-n2nc(C(C)(C)C)cc2NC(=O)Nc2ccc(OCCN3CCOCC3)c3ccccc23)cc1 [Doramapimod]
Summary of the method: as §1

IPA-3 + Alpelisib = compound: C1=CC=C2C(=C1)C=CC(=C2SSC3=C(C=CC4=CC=CC=C43)O)O [IPA-3] + Cc1nc(NC(=O)N2CCC[C@H]2C(N)=O)sc1-c1ccnc(C(C)(C)C(F)(F)F)c1 [Alpelisib] (partner 2 µM)
Summary of the method: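 Medians of duplicate plates are given as relative viability. That measure is the nuclei count in treated wells divided by the count in vehicle wells. Counts were taken on 4× images of lung cancer cell lines in 1536-well plates, 5 days after pin-tool dosing the day after seeding with one drug alone or a fixed anchor-drug dose plus five library-drug doses (not always all listed) in √10 steps.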

| Cell Line | relative viability (IPA-3; 0.2 µM) | relative viability (IPA-3; 0.6325 µM) | relative viability (IPA-3; 2 µM) | relative viability (IPA-3; 6.325 µM) | relative viability (IPA-3; 20 µM) | relative viability (RAF265; 0.01 µM) | relative viability (RAF265; 0.03162 µM) | relative viability (RAF265; 0.1 µM) | relative viability (RAF265; 0.3162 µM) | relative viability (RAF265; 1 µM) | relative viability (Doramapimod; 0.02 µM) | relative viability (Doramapimod; 0.06325 µM) | relative viability (Doramapimod; 0.2 µM) | relative viability (Doramapimod; 0.6325 µM) | relative viability (Doramapimod; 2 µM) | relative viability (IPA-3 + Alpelisib; first compound 0.2 µM) | relative viability (IPA-3 + Alpelisib; first compound 0.6325 µM) | relative viability (IPA-3 + Alpelisib; first compound 2 µM) | relative viability (IPA-3 + Alpelisib; first compound 6.325 µM) | relative viability (IPA-3 + Alpelisib; first compound 20 µM) |
| --- | --- | --- | --- | --- | --- | --- | --- | --- | --- | --- | --- | --- | --- | --- | --- | --- | --- | --- | --- | --- |
| NCI-H1563 | 1.09 | 0.959 | 1.01 | 1.1 | 1.17 | 1.06 | 1.05 | 1.01 | 1.03 | 0.932 | 0.996 | 0.996 | 1.11 | 1.28 | 1.06 | 0.987 | 0.982 | 1.06 | 0.949 | 1.07 |
| NCI-H661 | 1.09 | 0.951 | 0.984 | 1 | 1.01 | 1.01 | 0.962 | 0.774 | 0.643 | 0.57 | 0.978 | 1.02 | 0.995 | 1.06 | 0.915 | 0.693 | 0.682 | 0.801 | 0.765 | 1.07 |
| NCI-H1734 | 1.22 | 1 | 0.972 | 0.992 | 0.908 | 1.05 | 0.832 | 0.87 | 0.738 | 0.521 | 0.949 | 0.855 | 0.868 | 1.02 | 0.769 | 0.733 | 0.594 | 0.692 | 0.677 | 0.822 |
| NCI-H596 | 0.934 | 0.989 | 0.977 | 1.13 | 1.2 | 1.28 | 0.987 | 1.07 | 1.03 | 0.829 | 1.02 | 1.12 | 0.957 | 0.92 | 0.984 | 0.527 | 0.562 | 0.475 | 0.523 | 0.558 |
| NCI-H1944 | 1.05 | 0.897 | 0.953 | 1.11 | 0.955 | 1.06 | 1.13 | 0.972 | 0.755 | 0.667 | 0.891 | 0.994 | 0.935 | 1.19 | 0.878 | 0.836 | 0.832 | 0.958 | 0.942 | 0.983 |
| LK-2 | 1.06 | 1.03 | 0.995 | 1.01 | 1.19 | 0.963 | 1 | 1.09 | 1.07 | 0.714 | 0.909 | 0.981 | 0.926 | 0.741 | 0.849 | 1.13 | 1.02 | 1.19 | 1.19 | 1.22 |
| HCC-15 | 1.17 | 0.98 | 0.931 | 0.972 | 0.998 | 0.99 | 1.02 | 1.01 | 0.819 | 0.684 | 0.993 | 0.99 | 0.936 | 0.74 | 0.915 | 1.01 | 0.831 | 0.73 | 0.876 | 0.928 |
| NCI-H727 | 0.929 | 0.938 | 0.816 | 0.901 | 0.899 | 0.932 | 0.908 | 0.834 | 0.7 | 0.62 | 0.971 | 0.972 | 1.05 | 0.885 | 0.787 | 0.629 | 0.559 | 0.593 | 0.676 | 0.621 |
